Patent US11384060B2, “Amide compounds and use thereof” (ALPHALA CO., LTD., priority 2017, dated 2022)
Read-outs that look alike come from different tables or passages of the source.

How the values were obtained:
glucagon receptor (GCGR) = target: T1, glucagon receptor (GCGR) (Homo sapiens, UniProt P47871); test: I125-glucagon binding assay (competition, GCGR membrane fractions)
T1 construct: expressed in transfected cells; host or cells: CHO-K1 cells overexpressing GCGR (membrane fractions)
Procedure, shortened: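 Membranes from CHO-K1 cells overexpressing GCGR, 7.5 μg/well in 50 mM Tris pH 7.4 with 0.5% BSA, were preincubated 5 min with serially diluted compounds, then given 0.0625 nM final I^125-glucagon for 30 min at 25° C. Bound label was filtered on PEI-coated GF/B and counted; IC50 by non-linear regression.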

[1] = target: T2, glucagon receptor (GCGR) overexpressed CHO-K1 cells or human primary hepatocytes (Homo sapiens, UniProt P47871); test: Glucagon cAMP inhibition assay (Cisbio cAMP Dynamic 2 HTRF); type: cell-based
T2 construct: expressed in transfected cells; host or cells: GCGR overexpressed CHO-K1 cells or human primary hepatocytes (endogenous receptor)
T2 sequence (P47871 26-477): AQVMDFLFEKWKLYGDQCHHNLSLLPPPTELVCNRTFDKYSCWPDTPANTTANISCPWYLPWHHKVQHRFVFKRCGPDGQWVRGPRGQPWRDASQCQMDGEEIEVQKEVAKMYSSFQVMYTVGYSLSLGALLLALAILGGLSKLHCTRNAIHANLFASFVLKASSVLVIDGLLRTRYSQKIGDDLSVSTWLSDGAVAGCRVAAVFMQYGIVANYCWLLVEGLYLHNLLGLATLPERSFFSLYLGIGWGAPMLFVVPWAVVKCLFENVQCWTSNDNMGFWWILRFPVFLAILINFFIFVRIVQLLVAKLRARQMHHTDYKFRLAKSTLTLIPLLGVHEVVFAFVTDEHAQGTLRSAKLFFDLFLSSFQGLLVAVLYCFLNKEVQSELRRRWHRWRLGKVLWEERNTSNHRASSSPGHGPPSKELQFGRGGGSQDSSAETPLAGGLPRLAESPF
Procedure, shortened: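 GCGR-overexpressing CHO-K1 cells or human primary hepatocytes in HBSS with 0.1% BSA and 800 nM IBMX, pre-incubated 30 min with serially diluted compounds (1% DMSO final), then stimulated 30 min at room temperature with glucagon at its EC50. cAMP measured by HTRF after 60 min lysis; IC50 by non-linear regression.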

[2] = competition with I125-glucagon 0.0625 nM, membrane fractions of GCGR overexpressed CHO-K1 cells
[3] = inhibition of glucagon (EC50 concentration) induced cAMP production

T1 sequence (P47871 26-477): as above

Structure (SMILES) | IC50 (glucagon receptor (GCGR); [2]) [µM] | IC50 cAMP [1, 3] [nM] | IC50 (glucagon receptor (GCGR)) [µM] | IC50 cAMP [1] [nM] | IC50 (glucagon receptor (GCGR); cell prints its own unit uM under a nM head) [µM]
CC(C)C[C@@H](COc1ccc(-c2ccc(C(F)(F)F)cc2F)c(F)c1)Nc1ccc(C(=O)NCCC(=O)O)cc1 [Compound 8-6, (S)-3-(4-((1-((2,2′-difluoro-4′-(trifluoromethyl)-[1,1′-biphenyl]-4-yl)oxy)-4-methylpentan-2-yl)amino)benzamido)propanoic Acid] | 0.172 | 428 | – | – | –
CCCC[C@H](Cc1ccc(-c2ccc(C(F)(F)F)cc2)cc1)Nc1ccc(C(=O)NCCC(=O)O)cc1 [Compound 19-1, (R)-3-(4-((1-(4′-(trifluoromethyl)-[1,1′-biphenyl]-4-yl)hexan-2-yl)amino)benzamido)propanoic Acid] | – | – | 0.109 | 393.8 | –
CCCC[C@@H](COc1ccc(-c2ccc(C(F)(F)F)cc2)nc1)Nc1ccc(C(=O)NCCC(=O)O)cc1 [Compound 10-9, (S)-3-(4-((1-((6-(4-(trifluoromethyl)phenyl)pyridin-3-yl)oxy)hexan-2-yl)amino)benzamido)propanoic Acid] | 0.127 | 465 | – | – | –
CCCC[C@H](Nc1ccc(C(=O)NCCC(=O)O)cc1)C(=O)Nc1ccc(-c2cc3ccccc3o2)cc1 [Compound 23-35, (S)-3-(4-((1-((4-(benzofuran-2-yl)phenyl)amino)-1-oxohexan-2-yl)amino)benzamido) propanoic Acid] | – | – | 0.186 | 15397 | –
CC(C)C[C@@H](COc1cc(F)c(-c2cc(Cl)cc(Cl)c2)c(F)c1)Nc1ccc(C(=O)NCCC(=O)O)cc1 [Compound 7-9, (S)-3-(4-((1-((3′,5′-dichloro-2,6-difluoro-[1,1′-biphenyl]-4-yl)oxy)-4-methylpentan-2-yl)amino)benzamido)propanoic Acid] | 0.262 | 816 | – | – | –
CC(C)[C@H](Nc1ccc(C(=O)NCCC(=O)O)cc1)c1nnc(-c2ccc(C(C)(C)C)cc2)o1 [Compound 20-4, (S)-3-(4-((1-(5-(4-(tert-butyl)phenyl)-1,3,4-oxadiazol-2-yl)-2-methylpropyl)amino)benzamido)propanoic Acid] | – | – | 1.04 | 4853 | –
CCOC(=O)CCNC(=O)c1ccc(N[C@@H](COc2ccc(-c3nc4ccccc4s3)cc2)C(C)C)cc1 [Compound 1-51, Ethyl (R)-3-(4-((1-(4-(benzo[d]thiazol-2-yl)phenoxy)-3-methylbutan-2-yl)amino)benzamido)propanoate] | – | 197 | – | – | > 30
O=C(NCCS(=O)(=O)O)c1ccc(N[C@H](COc2ccc(-c3cc4ccccc4o3)cn2)c2ccc(-c3ccc(C(F)(F)F)cc3)cc2)cc1 [Compound 15-28, (S)-2-(4-((2-((5-(benzofuran-2-yl)pyridin-2-yl)oxy)-1-(4′-(trifluoromethyl)-[1,1′-biphenyl]-4-yl)ethyl)amino)benzamido)ethane-1-sulfonic Acid] | – | – | 0.1 | 11647 | –
CC[C@H](C)[C@@H](COc1ccc(-c2ccc(C(F)(F)F)cc2)cn1)Nc1ccc(C(=O)NCCC(=O)O)cc1 [Compound 15-12, 3-(4-(((2S,3S)-3-methyl-1-((5-(4-(trifluoromethyl)phenyl)pyridin-2-yl)oxy)pentan-2-yl)amino)benzamido)propanoic Acid] | – | – | 0.376 | 294 | –
O=C(O)CCNC(=O)c1ccc(N[C@H](Cc2ccc(-c3cc4ccccc4o3)cc2)C(=O)Nc2cc(F)cc(F)c2)cc1 [Compound 24-24, (R)-3-(4-((3-(4-(benzofuran-2-yl)phenyl)-1-((3,5-difluorophenyl)amino)-1-oxopropan-2-yl)amino)benzamido)propanoic Acid] | – | – | 1.21 | 214 | –
Cc1nn(-c2ncc(OC[C@H](CC(C)C)Nc3ccc(C(=O)NCCC(=O)O)cc3)cn2)cc1C(F)(F)F [Compound 12-1, (S)-3-(4-((4-methyl-1-((2-(3-methyl-4-(trifluoromethyl)-1H-pyrazol-1-yl)pyrimidin-5-yl)oxy)pentan-2-yl)amino)benzamido)propanoic Acid] | 0.674 | 14170 | – | – | –
